# Measurements as given in patent US9995734B2, “Human T cell line assay for evaluating the immunologic identity of glatiramer acetate preparations” (Mylan Inc., priority 2013, dated 2018).
# Key:
# Donor 3 COP T-Cell Lines = experiment: ATP proliferation assay (CellTiter Glo), Donor 3 COP T-cell lines, incl. reactivity to non-canonical GA peptides; assay type: cell-based, human; conditions: for Reactivity (proliferation), Mean: Day 54 of culture
# Donor 1 COP T-Cell Lines = experiment: ATP proliferation assay (CellTiter Glo), Donor 1 COP T-cell lines, incl. reactivity to non-canonical GA peptides; assay type: cell-based, human; conditions: for response to GMA in comparison to COP: 10 μg/mL dose; for ATP Proliferation Assay, Mean: Day 56, second assay; for ATP proliferation assay / luminescent ATP proliferation assay, mean: Day 56; for ATP proliferation assay: 48 hours after stimulation; for luminescent ATP proliferation assay, mean: no antigen 5673 (Table 9); for Proliferation (luminescent ATP assay), Mean: Day 56 of culturing
# Protocol: Proliferation was evaluated by measuring ATP content using a luminescent method (CellTiter Glo Luminescent Cell Viability Assay, Promega, Madison, Wis., cat. #G7571) or by measuring BrdU uptake by ELISA (Millipore cat. #2752), in both cases following kit instructions. A split well format was used. Cells in each well were resuspended and 65 μl transferred to the wells of each of two new U-bottom 96-well plates, to generate the replicate plates. For the initial screening, the original 96-well plate received mitomycin-treated autologous PBMC as APC plus 10 μg/mL antigen (GA). A first replicate plate received 100 μl., mitomycin-treated PBMC alone (2×10^5), and no antigen, and a second replicate plate received 100 μL mitomycin-treated PBMC plus GA at a final concentration of 10 μg/mL. Therefore, all three plates received autologous APC (PBMC) treated with mitomycin C to prevent cell division. […] The latter two plates were incubated for 3 days at 37° C., 6% CO2 before adding CellTiter Glo or BrdU and measuring signal. IL-2 was added at 10 U/mL to the original 96-well plate for expansion on Day 17. For subsequent screenings, mitomycin-treated EBV-transformed autologous B-LCL (2×10^5 to 5×10^5 cells/mL) were used as APC.
# COP-responsive T-cell lines were obtained from Donor 1. In the initial stimulation, isolated PBMC were plated at 1×10^5 cells per well (5×10^5 cells/mL) with 10 μg/mL Copaxone and cultured as described above. IL-2 was added to all wells on Days 4 and 7 of culture, and the wells screened for reactivity on Day 14 using a luminescent proliferation assay in split well format. The original plate was restimulated, and IL-2 added 4 days after restimulation.
# (§1) T-cell line 222-2D8, generated from Donor 1 by initial stimulation with COP, was shown in at least two experiments to proliferate comparably following restimulation with GMA and COP. […] ATP levels were measured at 48 hours after stimulation. The control in the GMA series was no antigen, and the control in the COP series was MBP. The response to GMA in comparison to COP at the 10 μg/mL dose in this assay was 103.4%.
# In a second ATP proliferation assay, carried out on Day 56 or culturing following stimulation with 1, 3, or 10 μg/mL of GMA or COP, the response to GMA in comparison to COP at the 10 μg/mL dose was 107.1%.
# as §1, with “line 222-2F1,” for “line 222-2D8,”, “Donor 222” for “Donor 1”, “was 85.1%.” for “was 103.4%.”
# On Day 56 of culturing, after six total rounds of stimulation, cell line 222-2F12 was assayed for proliferation in response to stimulation with GA and a series of non-canonical peptides. For the assay, 0, 3, 10, or 30 μg/mL of each of peptides GL 14, GLT 631, GAT 111, and GAT 631, COP, and GMA, were added to the T-cell lines at 1×10^5 cells/mL, in the presence of mitomycin C-treated autologous B-LCL. Proliferation was measured by luminescent ATP assay. Cell line 222-2F12 responded to GL 14 at 3 μg/mL, and not to the other non-canonical GA peptides tested. The response to GMA in comparison to COP at the 10 μg/mL dose in this assay was 99.4%.
# The cultures were restimulated on days 46, 56, 67 and 75. On Day 56, cell lines 222-2D8, 222-1H12, 222-2F12, 222-2B8, 222-105, 222-2B11, and 222-2E1 again were tested for reactivity to stimulation with 1, 3, or 10 μg/mL of GMA or COP in a proliferation assay. ATP levels were measured in all seven cell lines at 48 hours (results in FIGS. 5A-G) after stimulation. The control in the GMA series was no antigen, and the control in the COP series was MBP. […]
substance,measurement,setting,value
glatiramer acetate [GMA],"Mean, ATP proliferation assay","Donor 3 COP T-Cell Lines; T-cell line 165-E3C, 3 μg/mL, Day 46, after 3 days",35044 RLU
same,"Reactivity (proliferation), Mean","Donor 3 COP T-Cell Lines; T-cell line 165-E3C, 10 μg/mL antigen, No Antigen 2797",37602 RLU
same,"Mean, ATP proliferation assay","Donor 3 COP T-Cell Lines; T-cell line 165-E3C, 10 μg/mL, Day 46, after 3 days",68577 RLU
same,"Reactivity (proliferation), Mean","Donor 3 COP T-Cell Lines; T-cell line 165-E3C, 100 μg/mL antigen, No Antigen 2797",23437 RLU
same,"Mean, ATP proliferation assay","Donor 3 COP T-Cell Lines; T-cell line 165-E3C, Day 32, 10 μg/mL",3723 RLU
same,"Reactivity (proliferation), Mean","Donor 3 COP T-Cell Lines; T-cell line 165-F3C, 1 μg/mL antigen, No Antigen 3150",9423 RLU
same,"Proliferation (luminescent ATP assay), Mean","Donor 3 COP T-Cell Lines; T-cell line 165-F3C, 1 μg/mL antigen, Day 77 of culture, 0 μg/mL 1563",7277
same,"Mean, ATP proliferation assay","Donor 3 COP T-Cell Lines; T-cell line 165-F3C, 1 μg/mL, Day 46, after 3 days",45592 RLU
same,"Reactivity (proliferation), Mean","Donor 3 COP T-Cell Lines; T-cell line 165-F3C, 3 μg/mL antigen, No Antigen 3150",37555 RLU
same,"Proliferation (luminescent ATP assay), Mean","Donor 3 COP T-Cell Lines; T-cell line 165-F3C, 3 μg/mL antigen, Day 77 of culture, 0 μg/mL 1563",50400
same,"Mean, ATP proliferation assay","Donor 3 COP T-Cell Lines; T-cell line 165-F3C, 3 μg/mL, Day 46, after 3 days",101328 RLU
same,"Reactivity (proliferation), Mean","Donor 3 COP T-Cell Lines; T-cell line 165-F3C, 10 μg/mL antigen, No Antigen 3150",44621 RLU
same,"Proliferation (luminescent ATP assay), Mean","Donor 3 COP T-Cell Lines; T-cell line 165-F3C, 10 μg/mL antigen, Day 77 of culture, 0 μg/mL 1563",70563
same,"Mean, ATP proliferation assay","Donor 3 COP T-Cell Lines; T-cell line 165-F3C, 10 μg/mL, Day 46, after 3 days",84268 RLU
same,"Reactivity (proliferation), Mean","Donor 3 COP T-Cell Lines; T-cell line 165-F3C, 100 μg/mL antigen, No Antigen 3150",12391 RLU
same,"Mean, ATP proliferation assay","Donor 3 COP T-Cell Lines; T-cell line 165-F3C, Day 32, 10 μg/mL",1257 RLU
same,"Reactivity (proliferation), Mean","Donor 3 COP T-Cell Lines; T-cell line 165-F6C, 1 μg/mL antigen, No Antigen 2189",15671 RLU
same,"Mean, ATP proliferation assay","Donor 3 COP T-Cell Lines; T-cell line 165-F6C, 1 μg/mL, Day 46, after 3 days",18511 RLU
same,"Proliferation (luminescent ATP assay), Mean","Donor 3 COP T-Cell Lines; T-cell line 165-F6C, 1.25 μg/mL antigen, Day 76 of culture, No Antigen value 517",629
same,"Proliferation (luminescent ATP assay), Mean","Donor 3 COP T-Cell Lines; T-cell line 165-F6C, 2.5 μg/mL antigen, Day 76 of culture, No Antigen value 517","3,197"
same,"Reactivity (proliferation), Mean","Donor 3 COP T-Cell Lines; T-cell line 165-F6C, 3 μg/mL antigen, No Antigen 2189",40274 RLU
same,"Mean, ATP proliferation assay","Donor 3 COP T-Cell Lines; T-cell line 165-F6C, 3 μg/mL, Day 46, after 3 days",43634 RLU
same,"Proliferation (luminescent ATP assay), Mean","Donor 3 COP T-Cell Lines; T-cell line 165-F6C, 5 μg/mL antigen, Day 76 of culture, No Antigen value 517","11,867"
same,"Reactivity (proliferation), Mean","Donor 3 COP T-Cell Lines; T-cell line 165-F6C, 10 μg/mL antigen, No Antigen 2189",38921 RLU
same,"Proliferation (luminescent ATP assay), Mean","Donor 3 COP T-Cell Lines; T-cell line 165-F6C, 10 μg/mL antigen, Day 76 of culture, No Antigen value 517","20,141"
same,"Mean, ATP proliferation assay","Donor 3 COP T-Cell Lines; T-cell line 165-F6C, 10 μg/mL, Day 46, after 3 days",34321 RLU
same,"Reactivity (proliferation), Mean","Donor 3 COP T-Cell Lines; T-cell line 165-F6C, 100 μg/mL antigen, No Antigen 2189",3690 RLU
same,"Mean, ATP proliferation assay","Donor 3 COP T-Cell Lines; T-cell line 165-F6C, Day 32, 10 μg/mL",1489 RLU
same,response in proliferation assay,"Donor 3 COP T-Cell Lines; all seven Donor 3 COP T-cell lines tested, Day 54",responded well
same,reactivity in confirmatory ATP proliferation assay,"Donor 3 COP T-Cell Lines; six Donor 3 COP lines, Day 32, 10 μg/mL (Table 23)",showed reactivity
same,response to GMA in comparison to COP,"Donor 1 COP T-Cell Lines; 222-2D8, Day 56 (Table 6)",103.4%
same,response to GMA in comparison to COP,"Donor 1 COP T-Cell Lines; 222-2D8, second assay (Table 7)",107.1%
same,"ATP Proliferation Assay, Mean","Donor 1 COP T-Cell Lines; 222-2D8, 1 μg/mL (Table 7)",2078
same,"ATP Proliferation Assay, Mean","Donor 1 COP T-Cell Lines; 222-2D8, 3 μg/mL (Table 7)",149752
same,"ATP Proliferation Assay, Mean","Donor 1 COP T-Cell Lines; 222-2D8, 10 μg/mL (Table 7)",156417
same,ATP proliferation assay,"Donor 1 COP T-Cell Lines; 222-2D8, 1 μg/mL (Table 6)",4369
same,ATP proliferation assay,"Donor 1 COP T-Cell Lines; 222-2D8, 3 μg/mL (Table 6)",7480
same,ATP proliferation assay,"Donor 1 COP T-Cell Lines; 222-2D8, 10 μg/mL (Table 6)",12793
same,response to GMA in comparison to COP,"Donor 1 COP T-Cell Lines; 222-2F12 (printed 222-2F1), Day 56 (Table 8)",85.1%
same,response to GMA in comparison to COP,"Donor 1 COP T-Cell Lines; 222-2F12, Day 56 (Table 9)",99.4%
same,"luminescent ATP proliferation assay, mean","Donor 1 COP T-Cell Lines; 222-2F12, 3 μg/mL",232779
same,"luminescent ATP proliferation assay, mean","Donor 1 COP T-Cell Lines; 222-2F12, 10 μg/mL",228761
same,"luminescent ATP proliferation assay, mean","Donor 1 COP T-Cell Lines; 222-2F12, 30 μg/mL",125994
same,ATP proliferation assay,"Donor 1 COP T-Cell Lines; 222-2F12, 1 μg/mL (Table 8)",6500
same,ATP proliferation assay,"Donor 1 COP T-Cell Lines; 222-2F12, 3 μg/mL (Table 8)",8520
same,ATP proliferation assay,"Donor 1 COP T-Cell Lines; 222-2F12, 10 μg/mL (Table 8)",12382
same,"Proliferation (luminescent ATP assay), Mean","Donor 1 COP T-Cell Lines; T-cell line 222-1H12, 3 μg/mL antigen, 0 μg/mL 5974",141486 RLU
same,"Proliferation (luminescent ATP assay), Mean","Donor 1 COP T-Cell Lines; T-cell line 222-1H12, 10 μg/mL antigen, 0 μg/mL 5974",167193 RLU
same,"Proliferation (luminescent ATP assay), Mean","Donor 1 COP T-Cell Lines; T-cell line 222-1H12, 30 μg/mL antigen, 0 μg/mL 5974",82376 RLU
same,"Proliferation (luminescent ATP assay), Mean","Donor 1 COP T-Cell Lines; T-cell line 222-2F12, 3 μg/mL antigen, 0 μg/mL 5673",232779
same,"Proliferation (luminescent ATP assay), Mean","Donor 1 COP T-Cell Lines; T-cell line 222-2F12, 10 μg/mL antigen, 0 μg/mL 5673",228761
same,"Proliferation (luminescent ATP assay), Mean","Donor 1 COP T-Cell Lines; T-cell line 222-2F12, 30 μg/mL antigen, 0 μg/mL 5673",125994
